From US20250313563A1, “GLYCOGEN SYNTHASE KINASE 3 INHIBITORS AND USES THEREOF” (The Broad Institute, Inc., priority 2022, published 2025)
Read-outs that look alike come from different tables or passages of the source.

Columns and labels:
[1] = molecular target: GSK3b (GST-full length GSK3b) (Homo sapiens (Human), UniProt P49841); assay: GSK3b TR-FRET kinase assay; assay type: biochemical
Outline: (§1)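 Compound was preincubated 30 min with 1 nM GST-GSK3 enzyme. Reaction ran 100 min at ambient temperature in Tris pH 7.5/MgCl2 with 200 nM biotinylated pS645-glycogen synthase 631-650 peptide and ATP (4 μM GSK3α, 2 μM GSK3b, or 1 mM). The EDTA-stopped reaction was read by TR-FRET (Tb-anti-pSer641/streptavidin-d2), and IC50s were fitted.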

[2] = molecular target: GSK3α (GST-full length GSK3α) (Homo sapiens (Human), UniProt P49840); assay: GSK3α TR-FRET kinase assay; assay type: biochemical
GSK3α (GST-full length GSK3α), sequence (P49840 whole entry): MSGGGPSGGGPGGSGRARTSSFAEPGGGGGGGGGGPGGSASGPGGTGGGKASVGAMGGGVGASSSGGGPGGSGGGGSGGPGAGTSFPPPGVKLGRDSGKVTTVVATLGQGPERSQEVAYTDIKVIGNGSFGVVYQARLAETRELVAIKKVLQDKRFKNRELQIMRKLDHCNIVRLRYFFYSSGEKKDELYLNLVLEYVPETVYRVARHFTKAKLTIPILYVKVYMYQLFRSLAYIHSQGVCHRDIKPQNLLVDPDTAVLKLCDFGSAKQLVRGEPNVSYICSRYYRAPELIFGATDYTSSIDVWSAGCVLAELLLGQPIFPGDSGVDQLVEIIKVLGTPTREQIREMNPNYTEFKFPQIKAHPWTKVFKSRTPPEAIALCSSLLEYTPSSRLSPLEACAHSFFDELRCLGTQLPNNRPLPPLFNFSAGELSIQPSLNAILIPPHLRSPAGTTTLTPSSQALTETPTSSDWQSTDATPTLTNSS
Outline: as §1

[3] = 1 nM GSK3b, 2 μM ATP, 30 minute preincubation, Table 16, read-out: GSK3-B TR-FRET BIOCHEMICAL (TR-FRET), IC50
[4] = 1 nM GSK3α, 4 μM ATP, 30 minute preincubation, Table 16, read-out: GSK3-A TR-FRET BIOCHEMICAL (TR-FRET), IC50
[5] = read-out: GSK3-B (TR-FRET 1 mM ATP), GMean, IC50, 1 mM ATP, geometric mean
[6] = read-out: GSK3-A (TR-FRET 1 mM ATP), GMean, IC50, 1 mM ATP, geometric mean
[7] = 1 nM GSK3b, 2 μM ATP, 30 minute preincubation, read-out: GSK3-B TR-FRET BIOCHEMICAL (TR-FRET), IC50
[8] = 1 nM GSK3α, 4 μM ATP, 30 minute preincubation, read-out: GSK3-A TR-FRET BIOCHEMICAL (TR-FRET), IC50
[9] = 1 nM GSK3b, 2 μM ATP, 30 minute preincubation, Table 16, read-out: GSK3-B TR-FRET BIOCHEMICAL (TR-FRET)
[10] = 1 nM GSK3α, 4 μM ATP, 30 minute preincubation, Table 16, read-out: GSK3-A TR-FRET BIOCHEMICAL (TR-FRET)
[11] = GSK3-B (TR-FRET 1 mM ATP), GMean, IC50, 1 mM ATP, geometric mean
[12] = GSK3-A (TR-FRET 1 mM ATP), GMean, IC50, 1 mM ATP, geometric mean

GSK3b (GST-full length GSK3b), sequence (P49841 whole entry): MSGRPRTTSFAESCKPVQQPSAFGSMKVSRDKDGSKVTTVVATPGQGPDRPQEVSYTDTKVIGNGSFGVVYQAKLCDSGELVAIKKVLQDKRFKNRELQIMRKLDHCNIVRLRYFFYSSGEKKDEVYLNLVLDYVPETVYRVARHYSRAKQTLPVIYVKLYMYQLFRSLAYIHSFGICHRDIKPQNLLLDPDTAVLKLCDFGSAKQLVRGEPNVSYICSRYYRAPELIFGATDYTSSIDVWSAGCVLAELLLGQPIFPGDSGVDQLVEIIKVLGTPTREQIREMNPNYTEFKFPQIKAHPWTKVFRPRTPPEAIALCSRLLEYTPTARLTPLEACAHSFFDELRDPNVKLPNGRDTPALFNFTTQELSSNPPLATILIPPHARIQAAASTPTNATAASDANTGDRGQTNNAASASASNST

Row | SMILES | IC50 [1, 3] [nM] | IC50 [2, 4] [nM] | also measured
1 | CCC1(c2cccc(-c3ccnc(C(F)(F)F)c3)c2)C2=C(CC(C)(C)CC2=O)Nc2n[nH]c(C)c21 (stereo not drawn) [Compound 913049] | > 5000 | 100 to 1000 | 
2 | CC[C@]1(c2cccc(-c3cc(C)ncc3C)c2)C2=C(CC(C)(C)CC2=O)Nc2n[nH]c(C)c21 [Compound 913050] | ≤ 100 | ≤ 100 | IC50 [1, 5]: 100 to 1000 nM; IC50 [2, 6]: ≤ 100 nM
3 | CCC1(c2cccc(-c3ccnc(C)c3)c2)C2=C(CC(C)(C)CC2=O)Nc2n[nH]c(C)c21 (stereo not drawn) [Compound 913051] | > 5000 | 100 to 1000 | 
4 | CCC1(c2cccc(-c3ccncc3F)c2)C2=C(CC(C)(C)CC2=O)Nc2n[nH]c(C)c21 (stereo not drawn) [Compound 913052] | ≤ 100 | ≤ 100 | IC50 [1, 5]: 100 to 1000 nM; IC50 [2, 6]: ≤ 100 nM
5 | CCC1(c2cccc(-c3ccnc(OC)c3)c2)C2=C(CC(C)(C)CC2=O)Nc2n[nH]c(C)c21 (stereo not drawn) [Compound 913053] | ≤ 100 | ≤ 100 | 
6 | CC1(C)CC(=O)C2=C(C1)Nc1n[nH]cc1C21CCC2(CCC(=O)N2)CC1 (stereo not drawn) [Compound 913056] |  |  | IC50 [1, 7]: 1000 to 5000 nM; IC50 [2, 8]: 100 to 1000 nM
7 | CC(=O)N1CC2(C1)CC1(CO2)C2=C(CC(C)(C)CC2=O)Nc2n[nH]cc21 (stereo not drawn) [Compound 913058] |  |  | IC50 [1, 7]: ≤ 100 nM; IC50 [1, 5]: 100 to 1000 nM; IC50 [2, 8]: ≤ 100 nM; IC50 [2, 6]: ≤ 100 nM
8 | CCC1(c2cccc(N(C)c3cccc(OC)n3)c2)C2=C(CC(C)(C)CC2=O)Nc2n[nH]cc21 (stereo not drawn) [Compound 913121] | 100 to 1000 | ≤ 100 | 
9 | CCC1(c2cccc(N(C)c3cccc(C(F)(F)F)n3)c2)C2=C(CC(C)(C)CC2=O)Nc2n[nH]cc21 (stereo not drawn) [Compound 913122] | 100 to 1000 | 100 to 1000 | 
10 | CCC1(c2cccc(S(=O)(=O)c3ccccc3)c2)C2=C(CC(C)(C)CC2=O)Nc2n[nH]cc21 (stereo not drawn) [Compound 913123] | ≤ 100 | ≤ 100 | IC50 [1, 5]: 100 to 1000 nM; IC50 [2, 6]: ≤ 100 nM
11 | CCC1(c2cc(N(C)C(C)=O)ccc2F)C2=C(CC(C)(C)CC2=O)Nc2n[nH]cc21 (stereo not drawn) [Compound 913124] | 100 to 1000 | 100 to 1000 | 
12 | CCC1(c2cccc(N(C)C(=O)CN3CCCC3)c2)C2=C(CC(C)(C)CC2=O)Nc2n[nH]cc21 (stereo not drawn) [Compound 913125] | 100 to 1000 | ≤ 100 | 
13 | CC1(C)CC(=O)C2=C(C1)Nc1n[nH]cc1C21CCCSCC1 (stereo not drawn) [Compound 913126] |  |  | IC50 [1, 9]: 100 to 1000 nM; IC50 [2, 10]: ≤ 100 nM
14 | CC1(C)CC(=O)C2=C(C1)Nc1n[nH]cc1C21CCN(S(=O)(=O)C2CCOCC2)CC1 [Compound 913127] | ≤ 100 | ≤ 100 | IC50 [1, 11]: 100 to 1000 nM; IC50 [2, 12]: ≤ 100 nM
15 | CC1(C)CC(=O)C2=C(C1)Nc1n[nH]cc1C21CCN(S(=O)(=O)C2CCCCC2)CC1 [Compound 913128] | ≤ 100 | ≤ 100 | IC50 [1, 11]: 100 to 1000 nM; IC50 [2, 12]: ≤ 100 nM
16 | CC(C)S(=O)(=O)N1CCC2(CC1)C1=C(CC(C)(C)CC1=O)Nc1n[nH]cc12 [Compound 913129] | ≤ 100 | ≤ 100 | IC50 [1, 11]: 100 to 1000 nM; IC50 [2, 12]: ≤ 100 nM
17 | CCC1(c2cccc(S(=O)(=O)C(C)C)c2)C2=C(CC(C)(C)CC2=O)Nc2n[nH]cc21 (stereo not drawn) [Compound 913134] | 1000 to 5000 | 100 to 1000 | 
18 | CCC1(c2cccc(S(=O)(=O)C(C)C)c2)C2=C(CC(C)(C)CC2=O)Nc2n[nH]cc21 (stereo not drawn) [Compound 913135] | ≤ 100 | ≤ 100 | IC50 [1, 5]: 100 to 1000 nM; IC50 [2, 6]: ≤ 100 nM
19 | Cc1cccc2c1CC[C@]21C2=C(CC(C)(C)CC2=O)Nc2n[nH]cc21 [Compound 913136] | 100 to 1000 | ≤ 100 | 
20 | Cc1cccc2c1CC[C@@]21C2=C(CC(C)(C)CC2=O)Nc2n[nH]cc21 [Compound 913137] | > 5000 | > 5000 | 
21 | CC1(C)CC(=O)C2=C(C1)Nc1n[nH]cc1[C@]21C[C@@]2(CCN(CC(F)F)C2)C1 [Compound 913139] |  |  | IC50 [1, 7]: 100 to 1000 nM; IC50 [2, 8]: 100 to 1000 nM
22 | CC[C@@]1(c2cccc(N3CCC3(C)C)c2)C2=C(CC(C)(C)CC2=O)Nc2n[nH]cc21 [Compound 913140] | 100 to 1000 | ≤ 100 | 
23 | CCC1(c2cccc(N3CCC3(C)C)c2)C2=C(CC(C)(C)CC2=O)Nc2n[nH]cc21 (stereo not drawn) [Compound 913141] | 1000 to 5000 | 100 to 1000 | 
24 | CCC1(c2cccc(C(F)(F)F)c2)C2=C(CNC2=O)Nc2n[nH]cc21 (stereo not drawn) [Compound 913156] |  |  | IC50 [1, 9]: > 5000 nM; IC50 [2, 10]: 100 to 1000 nM
25 | CCC1(c2cccc(C(C)(C)F)c2)C2=C(CCN(C)C2=O)Nc2n[nH]cc21 (stereo not drawn) [Compound 913178] |  |  | IC50 [1, 7]: 1000 to 5000 nM; IC50 [2, 8]: 100 to 1000 nM
